# Measurements taken from patent US11360080B2, “AhR-ROR-γt complex as a biomarker and therapeutic target for autoimmune disease and IL-17A-associated disease” (NATIONAL HEALTH RESEARCH INSTITUTES, priority 2018, dated 2022).
# pIC50: −log10 of the molar value. Where a name gives a salt, the structure may show the parent alone.
# Key:
# GLK (MAP4K3) = molecular target: T1, GLK (MAP4K3) (Homo sapiens, UniProt Q8IVH8); test: In vitro kinase assay, recombinant kinase domain, myelin basic protein (MBP) as substrate; format: biochemical
# T1 construct: Recombinant proteins of kinase domains of various MAP4Ks were used
# T1 sequence (Q8IVH8 16-273 limits assumed): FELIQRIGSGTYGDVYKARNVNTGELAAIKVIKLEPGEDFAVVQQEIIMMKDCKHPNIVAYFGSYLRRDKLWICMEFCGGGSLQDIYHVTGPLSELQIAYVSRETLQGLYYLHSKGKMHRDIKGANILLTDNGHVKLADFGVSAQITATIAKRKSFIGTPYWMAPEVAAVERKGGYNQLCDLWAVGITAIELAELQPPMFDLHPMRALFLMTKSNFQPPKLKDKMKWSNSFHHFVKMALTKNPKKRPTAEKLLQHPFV
# Description: GLK kinase activity was determined by measuring the rate of ADP production in the in vitro kinase reaction using ADP-GLO™ Kinase Assay kit. For the kinase reaction, recombinant proteins of the GLK kinase-domain (1 μg) were incubated with recombinant proteins of kinase-dead PKCθ (K409W; 0.15 μg) plus ATP (0.1 mM) or myelin basic protein (MBP) plus ATP (0.1 mM) in kinase buffer (40 mM Tris-HCl, pH7.5.20 mM MgCl2, 0.1 mg/ml BSA, 10 mM DTT and 0.1 mM Na3VO4) for 30 min at room temperature. We studied whether GLK inhibitors also suppress cancer cell migration. […] Moreover, both C1 (verteporfin) and C2 (alexidine dihydrochloride) treatments suppressed tumor growth in the xenograft mouse model using TC-1 lung cancer cells (FIG. 15). To study whether GLK deficiency results in a reduction of lung cancer metastasis, we used a metastatic Lewis lung carcinoma (LLC) mouse model by tail vein injection of luciferase-expressing LLC (LLC/luc) cells. We identified two GLK inhibitors (verteporfin and alexidine dihydrochloride)) using cell-based assays and in vitro kinase assays. […] The luciferase activity of LLC/luc cells in the mice was detected by In Vivo Imaging System. […] Inhibition of kinase activity of GLK (MAP4K3) or other MAP4Ks was determined by in vitro kinase assays using myelin basic protein (MBP) as a substrate. […]
# EAE in wild-type mice = test: Experimental autoimmune encephalomyelitis (EAE) induction in wild-type mice; format: in vivo, mouse; conditions: C1 0.556 nmole/g, C2 0.085 nmole/g; for serum IL-17A levels in EAE: day 16
# Text: (A to C) Effect of the GLK inhibitor C1 (verteporfin) administration (0.556 nmole/g every 3 days for 30 days) on serum IL-17A and autoantibodies in Lck-GLK Tg mice. (B) ELISA of indicated serum cytokines in Lck-GLK Tg mice treated with C1 (verteporfin) or PBS. (C) ELISA of serum autoantibodies in Lck-GLK Tg mice treated with C1 (verteporfin) or PBS. Means±SEM are shown. (D) Experimental autoimmune encephalomyelitis (EAE) induction in wild-type mice treated with PBS, or the GLK inhibitor C1 (verteporfin) and C2. Clinical scores are presented on a scale of 1 to 5 (left panel). ELISA of IL-17A in the sera from MOG-immunized mice at day 16 (right panel). (E) Collagen-induced arthritis (CIA) induction in wild-type mice treated with the GLK inhibitor C1 (verteporfin) or PBS. Clinical scores are presented on a scale of 1 to 16 (left panel). ELISA of IL-17A in the sera from collagen-immunized mice at day 28. Means±SEM are shown. *, P value<0.05; **, P value<0.01; ***, P value<0.001 (two-tailed Student's […]). C1 denotes verteporfin; C2 denotes alexidine dihydrochloride.
# Moreover, overproduction of autoantibodies in Lck-GLK Tg mice were also abolished by C1 (verteporfin) treatment (FIG. 10C). […] To further verify that the GLK inhibitors also works in IL-17A-mediated animal models, we challenged wild-type mice with C1 (verteporfin) or C2 (alexidine dihydrochloride) during EAE and CIA induction.
SMILES,pIC50 (GLK (MAP4K3)),disease severity (clinical score) in EAE (EAE in wild-type mice),serum IL-17A levels in EAE (EAE in wild-type mice)
"C=Cc1c(C)c2cc3nc(cc4[nH]c(cc5nc(cc1[nH]2)C(C)=C5CCC(=O)O)c(CCC(=O)OC)c4C)[C@@]1(C)C3=CC=C(C(=O)OC)[C@H]1C(=O)OC [C1, verteporfin]",8.94,significantly suppressed,significantly suppressed
"CCCCC(CC)CNC(=N)NC(=N)NCCCCCCNC(=N)NC(=N)NCC(CC)CCCC (stereo not drawn) [C2, alexidine dihydrochloride]",8.00,significantly suppressed,significantly suppressed
